Data reported in PMC9586938, “Picomolar fluorescent probes for compound affinity determination to carbonic anhydrase IX expressed in live cancer cells” (Scientific Reports, 2022).

Assays:
CAII = target: T1, CAII (Homo sapiens, UniProt P00918); test: Thermal shift assay (TSA), recombinant CAII; type: binding; conditions: 37 °C, pH 7.0, observed (not intrinsic)
T1 construct: made in house; host or cells: E. coli
Protocol: (§1) The binding affinities of all fluorescein-containing compounds were determined for all 12 catalytically active CA isozymes by the thermal shift assay (TSA). […] However, the SFA technique cannot determine the affinities lower than the enzyme concentration used in the assay. […] In addition, we used isothermal titration calorimetry (ITC), the standard assay to determine affinity and enthalpy of protein–ligand binding. […] Therefore, ITC was used only to determine the enthalpy of interaction and confirm the ordering of compound affinities.
(§2) All twelve catalytically active human CA isozymes were prepared recombinantly as previously described. Isozymes CAIX, CAXII, and CAXIV were the catalytic domains of the proteins[14],[38]. All isozymes were expressed in E. coli except CAIX that has been prepared in mammalian cells. The proteins were chromatographically purified on ion-exchange or benzene sulfonamide containing affinity columns. Protein MW was confirmed by mass spectrometry with 1 Da precision as predicted from gene sequence.
(§3) Compound affinities for the twelve catalytically active CA isozymes were determined by the thermal shift assay as previously described[30],[39]. Protein solutions containing 1,8-anilinonaphthalenesulfonate fluorescent probe were heated from 25 to 100 °C at a rate of one degree per minute while following the fluorescence of the probe. The temperature scanning curves provided the melting temperature Tm of the protein. The Tm has a distinct dependence on the concentration of a compound. Stronger binders shift the Tm to a greater extent than the weak binders. The Tm dependencies on compound concentration were fit to obtain the affinity Kd[40].

CAIV = target: T2, CAIV (Homo sapiens, UniProt P22748); test: Thermal shift assay (TSA), recombinant CAIV; type: binding; conditions: 37 °C, pH 7.0, observed (not intrinsic)
T2 construct: made in house; host or cells: E. coli
T2 sequence (P22748 19-312): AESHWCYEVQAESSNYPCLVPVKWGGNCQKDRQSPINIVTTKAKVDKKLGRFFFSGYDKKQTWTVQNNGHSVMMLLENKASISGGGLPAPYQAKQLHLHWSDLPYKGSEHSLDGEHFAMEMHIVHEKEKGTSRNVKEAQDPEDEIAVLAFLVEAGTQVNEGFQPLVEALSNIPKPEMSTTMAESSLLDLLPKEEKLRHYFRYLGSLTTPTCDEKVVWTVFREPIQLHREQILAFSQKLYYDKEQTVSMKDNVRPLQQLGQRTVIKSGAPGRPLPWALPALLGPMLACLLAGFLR

CAVI = target: T3, CAVI (Homo sapiens, UniProt P23280); test: Thermal shift assay (TSA), recombinant CAVI; type: binding; conditions: 37 °C, pH 7.0, observed (not intrinsic)
T3 construct: made in house; host or cells: E. coli
T3 sequence (P23280 18-308): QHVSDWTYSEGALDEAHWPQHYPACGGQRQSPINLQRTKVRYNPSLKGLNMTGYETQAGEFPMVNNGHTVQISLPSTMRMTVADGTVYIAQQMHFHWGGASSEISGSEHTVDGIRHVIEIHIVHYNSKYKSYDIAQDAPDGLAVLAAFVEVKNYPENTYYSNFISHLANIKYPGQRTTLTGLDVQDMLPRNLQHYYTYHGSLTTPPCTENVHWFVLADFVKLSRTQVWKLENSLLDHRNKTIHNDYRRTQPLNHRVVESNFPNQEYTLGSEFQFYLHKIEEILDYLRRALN
Protocol: as §1, §2, §3

CAXII = target: T4, CAXII (Homo sapiens, UniProt O43570); test: Thermal shift assay (TSA), recombinant CAXII; type: binding; conditions: 37 °C, pH 7.0, observed (not intrinsic)
T4 construct: Isozymes CAIX, CAXII, and CAXIV were the catalytic domains of the proteins; made in house; host or cells: E. coli
T4 sequence (O43570 30-289 limits assumed): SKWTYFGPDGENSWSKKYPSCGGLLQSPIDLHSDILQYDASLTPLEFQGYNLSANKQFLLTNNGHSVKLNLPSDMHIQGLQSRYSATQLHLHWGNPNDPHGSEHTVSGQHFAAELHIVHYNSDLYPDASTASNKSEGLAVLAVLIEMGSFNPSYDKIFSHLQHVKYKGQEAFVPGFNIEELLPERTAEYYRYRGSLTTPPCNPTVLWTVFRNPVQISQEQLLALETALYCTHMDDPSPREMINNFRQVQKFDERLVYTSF
Protocol: as §1, §2, §3

CAXIII = target: T5, CAXIII (Homo sapiens, UniProt Q8N1Q1); test: Thermal shift assay (TSA), recombinant CAXIII; type: binding; conditions: 37 °C, pH 7.0, observed (not intrinsic)
T5 construct: made in house; host or cells: E. coli
T5 sequence (Q8N1Q1 whole entry): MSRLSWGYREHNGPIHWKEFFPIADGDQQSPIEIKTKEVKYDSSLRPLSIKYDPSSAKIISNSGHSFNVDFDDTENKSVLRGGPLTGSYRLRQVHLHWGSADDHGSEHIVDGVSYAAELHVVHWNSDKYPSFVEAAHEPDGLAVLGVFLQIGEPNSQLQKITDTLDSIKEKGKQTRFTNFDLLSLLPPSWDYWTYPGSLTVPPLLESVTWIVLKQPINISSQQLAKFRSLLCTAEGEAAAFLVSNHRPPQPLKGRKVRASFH

recombinant human CAIX = target: T6, recombinant human CAIX (Homo sapiens, UniProt Q16790); test: Isothermal titration calorimetry (ITC) with recombinant CAIX; type: binding
T6 construct: Isozymes CAIX, CAXII, and CAXIV were the catalytic domains of the proteins; made in house; host or cells: mammalian cells
Protocol: as §1
Affinities of several selected compounds to several human CA isozymes have been determined by ITC as described previously[43],[44]. The protein solution was placed in the cell of iTC200 titration calorimeter while the compound solution in identical buffer was placed in the syringe. After thermal equilibration, the compound solution was injected into the cell by identical injections. The heat produced during the reaction was measured by the calorimeter providing the shape of the curve that in turn yielded the enthalpy and the affinity Kd of the interaction.
Picomolar Fluorescent Probes for Compound Affinity Determination to Carbonic Anhydrase IX Expressed in Live Cancer Cells
Figure S1. […] The binding affinity of GZ19-32 was too high to be accurately measured by ITC due to the limitation related to the Wiseman parameter C. […]

[1] = tested on: HeLa CAIX-KO and normoxia-grown WT HeLa cells; test: Fluorescein-labeled compound dosing to CAIX-KO and normoxia-grown HeLa cells (non-specific binding); type: cell-based, human
Protocol: HeLa cell culture was grown in 12-well plates, either under hypoxia (1% O2) or under normoxia (21% O2), for 70 to 76 h. The medium was removed. Then 200 µL of serially diluted compound (twelve twofold steps) in the FB medium, usually starting at 80 nM (80, 40, 20, …, 0 nM), was added and incubated at 37 ℃ under normoxia in the CO2 incubator for 20 min (2 or 5 min in some experiments where specified). Then the compound solution was removed and the cells were washed 3 times for 1.5–2 min with 400 µL of PBS at RT. Then 180 µL of TrypLe express enzyme (ThermoFisher) was added to each well and incubated in CO2 incubator for 5 min to 10 min until the cells deattached from the surface. After addition of 20 µL of Defined Trypsin Inhibitor solution (ThermoFisher), cells were resuspended by pipetting and 150 µL of the suspension from each well were transferred to black Thermo Scientific™ Nunc MicroWell 96-Well Optical-Bottom Plates for fluorescence and absorbance measurements. The fluorescence was recorded at 485 nm excitation and 520 nm emission wavelengths in the plate reader (Synergy HTX, BioTek). The absorbance was recorded at 650 nm to measure the optical density of the cell suspension.
The compound solution was prepared by weighing 3–5 mg of a purified compound and dissolving in DMSO at 10 mM concentration. The 1 mM compound stock in DMSO was prepared by taking 10 µL of 10 mM stock and adding to 90 µL DMSO. The 10 µM compound stock was prepared by taking 10 µL of 1 mM compound stock in DMSO and adding 990 µL of the FB medium (this stock contained 1% of DMSO). Then 80 nM compound solution was prepared by taking 10 µL of 10 µM solution and adding 1.24 mL of the FB medium and placed to the first Eppendorf tube. Then 300 µL of FB medium were added to the Eppendorf tubes 2 to 12. A serial dilution was performed by taking 300 µL of solution from tube 1 to 2, then from 2 to 3 and so on while mixing vigorously at each step. No solution was transferred to the last tube thus it contained only FB medium and no compound. Then 200 µL from 12 tubes were transferred to the 12 wells of cell culture-containing 12-well plate, starting from the lowest concentration.
This equation was fit to the dosing curves of several fluorescently-labeled ligands to both the cells grown in hypoxia and in normoxia, both to the WT and CRISPR-Cas9 CAIX knockout cells. The cells bound both the GZ19-32 and GZ20-40 ligands that differed only in the length of the linker and both contained the same head-group. […] Furthermore, the ligands that had their sulfonamide amino group substituted with the methyl completely abandoned their capability of binding CAIX in this concentration region. The binding was also abolished for the CAIX-KO HeLa cells.

CAIX on live HeLa cells = target: T7, CAIX on live HeLa cells (Homo sapiens, UniProt Q16790); test: Fluorescence microscopy (widefield, SRRF/TIRF) of live HeLa cells stained with fluorescein-labeled compounds; type: cell-based; conditions: 10 nM; for staining of live HeLa cells grown under hypoxia: 5 min
T7 construct: recombinant CAIX and endogenous CAIX expressed on the cell surface; endogenous in cells; host or cells: HeLa (WT), grown under hypoxia (1% O2)

Manders overlap coefficient M1, colocalization with H7 CAIX antibody (CAIX on live HeLa cells; hypoxia-grown live HeLa cells)	Manders overlap coefficient M2, colocalization with H7 CAIX antibody (CAIX on live HeLa cells; hypoxia-grown live HeLa cells)	object based spot collocalization with H7 CAIX antibody (CAIX on live HeLa cells; hypoxia-grown live HeLa cells)	pixel based Person's correlation coefficient, colocalization with H7 CAIX antibody (CAIX on live HeLa cells; hypoxia-grown live HeLa cells)	Pearson co-localization coefficient with CAXII-selective 1B10 antibody (CAIX on live HeLa cells; hypoxia-grown live HeLa cells, SRRF/TIRF)	Molecule	Kd (CAII) [nM]	Kd (CAIV) [nM]	Kd (CAVI) [nM]	Kd (CAXII) [nM]	Kd (CAXIII) [nM]	binding to CAIX by ITC (in words) (recombinant human CAIX)	concentration above which compound binds normoxia-grown WT and CAIX-KO HeLa cells ([1]; 5 min incubation, Fig. 9A) [nM]	fluorescence of compound bound to HeLa CAIX-KO cells ([1]; CAIX-KO cells grown under hypoxia, 10 nM to 100 nM)	staining of live HeLa cells grown under hypoxia (CAIX on live HeLa cells)	non-specific binding to cells ([1]; micromolar concentration range, Fig. 9B, 9C)
0.82	0.65	0.75	0.82	0.02	NS(=O)(=O)c1c(F)c(F)c(S(=O)(=O)CCC(=O)Nc2ccc3c(c2)C(=O)OC32c3ccc(O)cc3Oc3cc(O)ccc32)c(NC2CCCCCCC2)c1F [GZ19-32, 3-((2-(cyclooctylamino)-3,5,6-trifluoro-4-sulfamoylphenyl)sulfonyl)-N-(3',6'-dihydroxy-3-oxo-3H-spiro[isobenzofuran-1,9'-xanthen]-5-yl)propanamide]	14	100	330	1.3	0.67	too high to be accurately measured	> 100	did not show an increase in fluorescence	labeled the cell membrane	
					3-((2-(cyclooctylamino)-3,5,6-trifluoro-4-(methylsulfonyl)phenyl)sulfonyl)-N-(3',6'-dihydroxy-3-oxo-3H-spiro[isobenzofuran-1,9'-xanthen]-5-yl)propanamide and 3-((3-(cyclooctylamino)-2,5,6-trifluoro-4-(methylsulfonyl)phenyl)sulfonyl)-N-(3',6'-dihydroxy-3-oxo-3H-spiro[isobenzofuran-1,9'-xanthen]-5-yl)propanamide [GZ20-37]	> 100000	> 100000	> 100000	> 100000	> 100000	did not show binding			did not bind	bound cells in the micromolar concentration range
